# Laboratory results taken from patent publication US20120202840A1, “Use of Flubendazole and Vinca Alkaloids for Treatment of Hematological Diseases” (priority 2009, published 2012).
# Columns and labels:
# leukemia cell lines = assay: Screen of library of 110 drugs for cytotoxicity; type: cell-based
# Procedure: OCI-AML2 leukemia cells were treated with increasing concentrations of 8 benzimidazoles. Seventy two hours after incubation, cell growth and viability was measured by the MTS assay.
# OCI-AML2 cells [1] = assay: MTS cell growth and viability assay, OCI-AML2; type: cell-based; conditions: OCI-AML2 cells, FIG. 1A
# Procedure: (A) OCI-AML2 cells were treated for 72 h with increasing concentrations of benzimidazoles. After incubation, cell growth and viability was measured by the MTS assay. Data represent the mean percentage of viable cells ±SD from a representative experiment.
# bovine tubulin [2] = assay: Tubulin polymerization assay; type: biochemical; conditions: cell-free, bovine tubulin 1.8 mg/ml; flubendazole 100 μM
# Procedure: (§1) A representative figure is shown.
# Polymerization of bovine tubulin was measured according to Beyer et al^28. Briefly, bovine tubulin (1.8 mg/ml; Cytoskeleton; Denver, USA) was added to ice cold polymerization buffer (PEM; 80 mM PIPES, 0.5 mM EGTA, 2 mM MgCl2, 10% glycerol and 1 mM GTP) and centrifuged at top speed in a microcentrifuge for 5 min at 4° C. […] Following addition of tubulin, the plate was immediately placed in the spectrophotometer, which was maintained at 37° C., and the absorbance measured every 3 minutes for 2.5 h at 340 nm.
# advanced solid tumors = conditions: Phase I, cited from earlier work
# bovine tubulin [3] = assay: Site of binding to tubulin (colchicine-tubulin fluorescence); conditions: tubulin 5.0 μM, 100 μM drug 30 min, then colchicine 10 μM 60 min
# Procedure: (C) Tubulin (5.0 μM) was incubated for 30 min with 100 μM vinblastine, 100 μM flubendazole, or buffer control. […] A representative figure is shown.
# The site of flubendazole binding was determined similar to Gupta et al^19. Bovine tubulin (5.0 μM) was incubated with 100 μM flubendazole, 100 μM vinblastine or buffer control for 30 min at 37° C.
# bovine tubulin [4] = assay: Measurement of tubulin sulfhydryl groups (DTNB); type: biochemical; conditions: flubendazole 100 μM, vinblastine 10 μM
# Procedure: as §1
# The ability of microtubule target drugs to alter tubulin structure was assessed by measuring the number of reactive cysteine residues using the sulfhydryl reagent 5,5′-Dithio-bis(2-nitrobenzoic acid) (DTNB; Sigma) as previously described^19,29. […] After incubation, DTNB was added (100 μM final concentration) and the absorbance was measured in a 1 cm path length cuvette at 412 nm for 60 min at 37° C. The number of sulfhydryl groups were determined by using a molar extinction coefficient for DTNB of 13 600 (M^−1, cm^−1).^29
# OCI-AML2 cells [5] = conditions: after 16 days of treatment; flubendazole 15 mg/kg, vinblastine 0.3 mg/kg
# Procedure: Sub-lethally irradiated SCID mice were injected subcutaneously with OCI-AML2 cells (n=20; 10 per group). After implantation, mice were treated with 50 mg/kg flubendazole (A), 20 mg/kg flubendazole (B), or vehicle control by intraperitoneal injection daily. Tumor volume was measured over time. After 16 days (20 mg/kg dose) or 18 days (50 mg/kg dose), mice were sacrificed and tumors were excised, measured and weighted.
# Sub-lethally irradiated SCID mice were injected subcutaneously with OCI-AML2 cells (n=40; 10 per group). […] After 16 (C) or 18 (D) days, mice were sacrificed and tumors were excised, measured and weighted. Data represent the mean±SD tumor weight.
# Sub-lethally irradiated SCID mice were injected subcutaneously in the left flank with leukemia OCI-AML2 (2.0×10^6) or myeloma OPM2 (1.0×10^7) cells. Mice were then randomly assigned to receive flubendazole (in 0.9% NaCl and 0.01% tween-80) or vehicle control (0.9% NaCl and 0.01% tween-80) intraperitoneally. […] Tumor volumes (tumor length×width^2×0.5236) were monitored daily using calipers. At the end of the experiment (16-18 days), mice were sacrificed, tumors excised and tumor volume and weight measured. All animal studies were carried out according to the regulations of the Canadian Council on Animal Care and with the approval of the local ethics review board.
# CEM = assay: MTS cell growth and viability assay, CEM; type: cell-based; conditions: 3 replicates
# Procedure: (§2) Leukemia (U937, MDAY, CEM, CEM-VBL) and solid tumor cell lines (PPC-1, HeLa) were cultured in RPMI 1640 medium. The epidermoid carcinoma cell lines KB-3-1 and KB-4.0-HTI^23 were grown in Dulbecco's Modified Eagle Medium. The lung carcinoma cell lines A549 and A549.EpoB40 were grown in RPMI with the latter supplemented with 20% fetal calf serum (FCS), and 40 nM epothilone B.^24 Leukemia cell lines OCI-AML2, CEM, and NB4 and all the myeloma cell lines (OPM2, KMS11, JJN3 LP1, H929, L1, KMS12, KSM18 and OCI My5) were maintained in Iscove's Modified Dulbecco's Medium (IMDM). TEX cells were maintained in IMDM, 15% FCS, 1% penicillin-streptomycin, 2 mM L-glutamine, 20 ng/mL SCF, 2 ng/mL IL-3. Unless otherwise noted, all media were supplemented with 10% FCS, 100 units/mL of streptomycin and 100 μg/mL of penicillin (all from Hyclone, Logan, Utah). Cells were incubated in a humidified air atmosphere containing 5% CO2 at 37° C.
# (§3) Cell growth and viability was measured using the 3-(4,5-dimethylthiazol-2-yl)-5-(3-carboxymethoxyphenyl)-2-(4-sulfophenyl)-2H-tetrazolium inner salt (MTS) reduction assay (Promega, Madison, Wis.) according to the manufacture's protocol and as previously described^25. Cells were seeded in 96 well plates and treated with drug for 72 h. Optical density (OD) was measured at 490 nm.
# CEM-VBL = assay: MTS assay, CEM-VBL (Pgp over-expressing); type: cell-based
# Procedure: Over-expression of P-glycoprotein (Pgp, MDR1) renders cells resistant to vinca alkaloid microtubule inhibitors.^43 Therefore, the effects of Pgp over-expression on flubendazole's cytotoxicity were tested. CEM-VBL cells over-express Pgp,^44 which was confirmed with a rhodamine dye exclusion assay. CEM wild type and CEM-VBL cells were treated with increasing concentrations of flubendazole or vinblastine and cell viability measured by the MTS assay (Table 1). […] In contrast, CEM-VBL cells over-expressing Pgp were resistant to vinblastine at concentrations greater than 5.0 μM (Table 1).
# as §2, §3
molecule,measurement,setting,value
COC(=O)Nc1nc2ccc(C(=O)c3ccccc3)cc2[nH]1 [mebendazole],cytotoxicity in library screen,leukemia cell lines,cytotoxic
c1ccc2[nH]c(-c3cscn3)nc2c1 [thiabendazole],induction of cell death,OCI-AML2 cells [1],did not induce cell death
same,effect on tubulin polymerization / microtubule formation,bovine tubulin [2],did not inhibit microtubule formation
CCCSc1ccc2nc(NC(=O)OC)[nH]c2c1 [albendazole],patients with severe neutropenia,advanced solid tumors; 7 patients,3 patients
same,patients with reduced levels of the tumor markers AFP and CEA,advanced solid tumors; advanced solid tumors,2 of 7
"c1ccc2[nH]cnc2c1 [1,3-benzidiazole]",induction of cell death,OCI-AML2 cells [1],did not induce cell death
same,effect on tubulin polymerization / microtubule formation,bovine tubulin [2],did not inhibit microtubule formation
vinblastine,colchicine fluorescence (colchicine binding to tubulin),bovine tubulin [3],had no effect
same,reduction in number of reactive cysteines compared to buffer control,bovine tubulin [4],8.6±2.5
same,mouse body weight,OCI-AML2 cells [5],does not affect mouse body weight
same,IC50,CEM,140 ± 10 nM
same,IC50,"CEM-VBL; CEM-VBL, 3 replicates",> 5000 nM
same,sensitivity of CEM-VBL cells compared to wild type controls,CEM-VBL; Pgp over-expression,resistant
